The text below walks through data of patent US20220257578A1, “COMPOSITION AND METHOD FOR TREATING CANDIDA AURIS INFECTION” (Appili Therapeutics Inc., priority 2019, published 2022).

Values after ≈ are worked out from the molar mass of the structure shown. Where two headings read alike, the source gives them in different places.

The test system of one assay is C. auris (DI 17-46). Briefly: Neutropenic mice with invasive candidiasis secondary to C. auris (survival arm and fungal burden arm). The format is in vivo. The conditions noted are these: for percent survival: day 21, control 0%; for kidney fungal burden (mean): control 7.09; for kidney fungal burden: control 8.04. The protocol:
FIG. 1 depicts survival curves in mice inoculated intravenously with C. auris and treated with vehicle control, fluconazole 20 mg/kg PO QD, or caspofungin 10 mg/kg IP QD (A) or T-2307 at doses of 0.75 mg/kg, 1.5 mg/kg, or 3 mg/kg SC QD (B). Treatment started one day post-inoculation and continued for 7 days. Mice were then followed off therapy until day 21 post-inoculation (14 days after therapy stopped). Black square—vehicle control; white circle—fluconazole 20 mg/kg; black circle—caspofungin 10 mg/kg; inverted gray triangle T-2307 0.75 mg/kg; gray rectangle—T-2307 1.5 mg/kg; gray triangle—T-2307 3 mg/kg. N=10 mice per group.
FIG. 2 depicts graphs showing kidney (A) and brain (B) fungal burden (CFU/g) in mice with invasive candidiasis secondary to C. auris in the fungal burden arm. Colony-forming units were measured on day 8 post-inoculation after 7 days of therapy. N=10 mice in the vehicle control and treatment groups; N=5 mice in the 24-hour control group.
FIG. 3 depicts graphs showing kidney (A) and brain (B) fungal burden (CFU/g) in mice with invasive candidiasis secondary to C. auris in the survival arm. Colony-forming units were measured […]. N=10 mice in the vehicle control and treatment groups; N=5 mice in the 24-hour control group. Black circles represent mice that succumbed to infection prior to day 21; gray circles represent mice that survived to the survival endpoint.
Male Institute of Cancer Research (ICR) mice were rendered neutropenic with a single dose of 5-fluorouracil (5 mg/mouse) administered 24 hours prior to inoculation, and a clinical isolate of C. auris (DI 17-46) was used to infect mice via the lateral tail vein as previously described (Wiederhold et al. 2019. Antimicrob Agents Chemother. 63:e02233-18, the entire contents of which is herein incorporated by reference). Treatment with vehicle control, T-2307 (0.75, 1.5, or 3 mg/kg subcutaneously (SC) once daily), fluconazole (20 mg/kg per orally (PO) once daily), or caspofungin (10 mg/kg intraperitoneally (IP) once daily) began 1-day post-inoculation and continued for 7 days. In the fungal burden arm, mice were humanely euthanized on day 8 post-inoculation, and kidneys and brains were collected, weighed, and homogenized for analysis of colony-forming units (CFU/g). In the survival arm, mice were followed off therapy for 14 days, until day 21 post-inoculation. Fungal burden was also assessed in the survival arm on day 21 or on the day the mice succumbed to infection. Differences in survival were assessed by Kaplan-Meier analysis with the log-rank test. ANOVA with Tukey's post-test for multiple comparisons were used to assess for differences in fungal burden and geometric mean (GM) MIC values.

A further assay deals with C. auris. Briefly: In vitro susceptibility testing according to CLSI M27-A3 (MIC). The format is cell-based, Candida auris. The conditions noted are these: for MIC50 / MIC90 / MIC: Candidozyma auris; for MIC50: lowest concentration that inhibited 50% of the isolates tested; for MIC90: lowest concentration that inhibited 90% of the isolates tested. The protocol: In vitro susceptibility testing was performed according to the CLSI M27-A3 standard, the contents of which are herein incorporated by reference, against 10 isolates available from the U.S. Food and Drug Administration Center for Disease Control Antibiotic Resistance (FDA CDC AR) Isolate Bank and 13 clinical isolates that were received for testing by the Fungus Testing Laboratory at University of Texas Health Science Center at San Antonio (UTHSCSA).
In vitro activity of T-2307, fluconazole, and caspofungin against C. auris. […] MIC50 and MIC90 are lowest concentrations that inhibited 50% and 90%, respectively, of the isolates tested. GM MIC is geometric mean MIC.

Setting [1] is: 50% inhibition endpoint, read-out: GM MIC (geometric mean MIC).
Where [2] appears, read: infecting clinical isolate of C. auris (DI 17-46), read-out: MIC against the infecting isolate.

As for `CC[C@H](C)C[C@H](C)CCCCCCCCC(=O)N[C@H]1C[C@@H](O)[C@@H](NCCN)NC(=O)[C@@H]2[C@@H](O)CCN2C(=O)[C@H]([C@H](O)CCN)NC(=O)[C@H]([C@H](O)[C@@H](O)c2ccc(O)cc2)NC(=O)[C@@H]2C[C@@H](O)CN2C(=O)[C@H]([C@@H](C)O)NC1=O` [Caspofungin, caspofungin], the percent survival in the assay on C. auris (DI 17-46) (caspofungin 10 mg/kg IP once daily for 7 days) came to 100%. Besides, the brain fungal burden turned out to be 4.45 log10 CFU/g in the assay with C. auris (DI 17-46) (fungal burden arm, day 8 post-inoculation, caspofungin 10 mg/kg IP, control 5.88) and 2.51 log10 CFU/g with C. auris (DI 17-46) (survival arm, day 21 or day mice succumbed, caspofungin 10 mg/kg IP, control 6.31). Besides, the “kidney fungal burden (mean)” value in the assay on C. auris (DI 17-46) (fungal burden arm, day 8 post-inoculation, caspofungin 10 mg/kg IP) is 3.21 log10 CFU/g. Also, the kidney fungal burden in the assay on C. auris (DI 17-46) (survival arm, day 21 or day mice succumbed, caspofungin 10 mg/kg IP) was found to be 3.11 log10 CFU/g. Also, the MIC50 (usually the lowest concentration that inhibits either 50% of growth or 50% of the strains tested, depending on the study) against C. auris (50% inhibition endpoint) amounted to 0.25 µg/mL (≈ 0.229 µM). The MIC90 – broadly, an inhibitory concentration at the 90% level, which refers to growth in some studies and to a panel of isolates in others – against C. auris (50% inhibition endpoint) was 0.5 µg/mL (≈ 0.457 µM). The MIC (usually the lowest concentration that inhibits growth of the organism) in the assay on C. auris (setting [1]) was 0.24 µg/mL (≈ 0.22 µM); with C. auris (setting [2]), 0.25 µg/mL (≈ 0.229 µM).

Turning to `OC(Cn1cncn1)(Cn1cncn1)c1ccc(F)cc1F` [Fluconazole, fluconazole], in the assay with C. auris (DI 17-46) (fluconazole 20 mg/kg PO once daily), the “improvement in survival vs control” value is given as “did not improve survival”. Besides, in the assay with C. auris (50% inhibition endpoint), the MIC50 turned out to be 4 µg/mL (≈ 13.1 µM) and the MIC90 is > 64 µg/mL. Moreover, the MIC in the assay with C. auris (setting [1]) was 14.6 µg/mL (≈ 47.7 µM). Moreover, in the assay on C. auris (setting [2]), the MIC is > 64 µg/mL.

The compound `N=C(N)c1ccc(OCCCC2CCN(CCCOc3ccc(C(=N)N)cc3)CC2)cc1` [T-2307, 4-{3-[4-(3-{4-[amino(imino)methyl]phenoxy}propyl)-1-piperidinyl]propoxy}benzamidine] gave a percent survival in the assay with C. auris (DI 17-46) (T-2307 3 mg/kg SC once daily for 7 days) of 70%. The “kidney fungal burden (mean)” value in the assay with C. auris (DI 17-46) (fungal burden arm, day 8 post-inoculation, T-2307 3 mg/kg SC) came out at 5.06 log10 CFU/g. Moreover, in the assay with C. auris (DI 17-46) (fungal burden arm, T-2307 3 mg/kg SC), the “nature of activity (kidney fungal burden vs 24-hour group before start of therapy)” value was “static in nature”. Besides, the “improvement in survival vs control” value with C. auris (DI 17-46) (lower doses of T-2307 (0.75, 1.5 mg/kg SC once daily)) is on record as “did not improve survival”. The brain fungal burden in the assay with C. auris (DI 17-46) (survival arm, day 21 or day mice succumbed, T-2307 3 mg/kg SC, control 6.31) turned out to be 4.16 log10 CFU/g. In addition, the kidney fungal burden with C. auris (DI 17-46) (survival arm, day 21 or day mice succumbed, T-2307 3 mg/kg SC) was 6.28 log10 CFU/g. Besides, the “MIC Range” value with C. auris (50% inhibition endpoint, 23 C. auris isolates, 24 hours at 35° C.) is ≤0.008 to 0.015 µg/mL. For the same compound, the values for the MIC50 against C. auris (50% inhibition endpoint) and against C. auris (100% inhibition endpoint) were 0.015 µg/mL (≈ 0.0343 µM) and > 4 µg/mL, respectively. Also, the MIC90 in the assay on C. auris (50% inhibition endpoint) is 0.015 µg/mL (≈ 0.0343 µM); in the assay on C. auris (100% inhibition endpoint) it was > 4 µg/mL. In addition, the MIC in the assay on C. auris (setting [1]) was 0.011 µg/mL (≈ 0.0251 µM); with C. auris (100% inhibition endpoint, read-out: GM MIC (geometric mean MIC)), 2.19 µg/mL (≈ 5 µM); with C. auris (setting [2]), < 0.008 µg/mL.
